# Laboratory results taken from patent publication US7022333B2 (priority 2001, dated 2006).
# Tested on: S. aureus FRI-1187
# Type: cell-based, Staphylococcus aureus
compound,measurement,setting,value
"OCCc1ccccc1 [Phenylethyl alcohol, phenylethyl alcohol]",amount of exotoxin production from the FRI-1187 culture,,significantly reduced
same,ELISA: TSST-1 ng/OD unit,"0.5% test compound, S. aureus FRI-1187, Example 5",none
